One assay concerns the target T1, human NK2 receptor (Homo sapiens, UniProt P21452).
T1 construct: expressed in transfected cells; host or cells: COS cells
T1 sequence (P21452 1-398): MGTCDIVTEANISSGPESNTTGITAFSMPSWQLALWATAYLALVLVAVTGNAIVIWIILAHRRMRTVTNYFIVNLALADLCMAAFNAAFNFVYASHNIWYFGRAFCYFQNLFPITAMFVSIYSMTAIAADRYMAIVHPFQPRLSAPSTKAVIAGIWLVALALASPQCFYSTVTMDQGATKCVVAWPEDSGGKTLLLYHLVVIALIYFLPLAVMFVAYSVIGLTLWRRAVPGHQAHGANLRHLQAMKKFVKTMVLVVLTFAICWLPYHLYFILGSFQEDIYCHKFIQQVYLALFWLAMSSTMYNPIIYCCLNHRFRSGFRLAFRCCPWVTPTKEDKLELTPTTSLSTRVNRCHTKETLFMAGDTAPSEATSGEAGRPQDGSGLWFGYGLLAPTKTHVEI
The assay can be described thus: Test for binding to human NK2 receptor. The essentials: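 Radioligand binding with [^3H]SR 48968 on cryopreserved COS cells expressing human NK2 receptor (5.0×10^5 cells/mL), in 50 mM Tris-HCl pH 7.4 with BSA, MnCl2 and protease inhibitors. Bound label collected on PEI-treated GF/B filters, counted by liquid scintillation; Ki derived from IC50 and radioligand Kd.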

The next assay has as its target T2, substance P receptor (Cavia porcellus, UniProt P30547).
T2 construct: A preparation of a crude lung membrane sample was prepared; from tissue; host or cells: guinea-pig lung (crude membrane sample)
The assay can be described thus: Test for binding to guinea-pig substance P receptor (crude lung membrane sample). On the procedure: A preparation of a crude lung membrane sample was prepared, and a test for binding of a test substance to the sample was performed according to the method described in EP0336230A2.
The binding effect of the test substance to a substance P receptor was calculated as an affinity (Ki) of the test substance for the substance P receptor from a 50% binding concentration (IC50) and an affinity (Kd) of [^3H]substance P for the substance P receptor.

A further assay has as its target T3, human M3 receptor (Homo sapiens, UniProt P20309).
T3 construct: expressed in transfected cells; host or cells: CHO cells
The assay can be described thus: Test for binding to human M3 receptor. The essentials:
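CHO-cell crude membranes expressing human M3 were incubated with [N-methyl-3H]-(−)-scopolamine methyl chloride in 50 mM Tris-HCl, 0.5 mM EDTA, pH 7.4, for 60 min at room temperature. Bound ligand was collected on PEI-pretreated glass-fibre filters and counted by liquid scintillation. Ki was calculated from IC50 and the radioligand Kd.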

For the next assay, the target named is T4, neurokinin NK1 receptor (Cavia porcellus, UniProt P30547).
T4 construct: Using healthy guinea pigs (body weight, 350 to 550 g; Hartley male guinea pigs); from tissue; host or cells: live anaesthetised Hartley male guinea pigs (airway, in vivo)
The experiment in a line: Effect of suppressing substance P-induced airway contraction (in vivo, intratracheal administration). Further details: species or system guinea pig. To be noted: guinea pig; guinea pigs, intratracheal administration 60 minutes before 20 μg/kg i.v. SP; AUC of increase in airway pressure over 10 minutes; read-out: ID50 (the source's name). The essentials: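 Anaesthetised, gallamine-paralysed, ventilated male Hartley guinea pigs; compound in 5% glucose given intratracheally 60 min before 20 μg/kg i.v. substance P. Airway-pressure increase AUC over 10 min, inhibition versus vehicle group, expressed as ID50.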

Where [1] appears, read: COS cells expressing human NK2 receptor, [3H]SR 48968 1 nM, Ki from IC50 and Kd, read-out: Ki.
Where [2] appears, read: crude guinea-pig lung membrane sample, [3H]substance P, Ki from IC50 and Kd, read-out: Ki.
The mark [3] stands for this setting: CHO cells expressing human M3 receptor, [N-methyl-3H]-(-)-Scopolamine methyl chloride 0.5 nM, Ki from IC50 and Kd, read-out: Ki.

SMILES strings stand for the structures. pKi: −log10 of the molar value. Where a name gives a salt, the structure may show the parent alone. Read-outs that look alike come from different tables or passages of the source.

T2 sequence (P30547 whole entry): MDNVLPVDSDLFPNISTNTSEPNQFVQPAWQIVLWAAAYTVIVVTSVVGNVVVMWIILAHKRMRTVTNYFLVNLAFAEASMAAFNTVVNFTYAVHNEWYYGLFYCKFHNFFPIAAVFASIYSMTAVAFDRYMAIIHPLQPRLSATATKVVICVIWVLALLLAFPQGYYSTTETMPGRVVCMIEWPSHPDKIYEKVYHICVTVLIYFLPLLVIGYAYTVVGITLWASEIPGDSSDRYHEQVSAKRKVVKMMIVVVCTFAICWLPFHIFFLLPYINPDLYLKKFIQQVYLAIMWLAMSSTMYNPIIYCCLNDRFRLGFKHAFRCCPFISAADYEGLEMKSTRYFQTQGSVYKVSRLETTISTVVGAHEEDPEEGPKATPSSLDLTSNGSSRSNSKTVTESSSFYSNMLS
T4 sequence (P30547 whole entry): as above
T3 sequence (P20309 whole entry): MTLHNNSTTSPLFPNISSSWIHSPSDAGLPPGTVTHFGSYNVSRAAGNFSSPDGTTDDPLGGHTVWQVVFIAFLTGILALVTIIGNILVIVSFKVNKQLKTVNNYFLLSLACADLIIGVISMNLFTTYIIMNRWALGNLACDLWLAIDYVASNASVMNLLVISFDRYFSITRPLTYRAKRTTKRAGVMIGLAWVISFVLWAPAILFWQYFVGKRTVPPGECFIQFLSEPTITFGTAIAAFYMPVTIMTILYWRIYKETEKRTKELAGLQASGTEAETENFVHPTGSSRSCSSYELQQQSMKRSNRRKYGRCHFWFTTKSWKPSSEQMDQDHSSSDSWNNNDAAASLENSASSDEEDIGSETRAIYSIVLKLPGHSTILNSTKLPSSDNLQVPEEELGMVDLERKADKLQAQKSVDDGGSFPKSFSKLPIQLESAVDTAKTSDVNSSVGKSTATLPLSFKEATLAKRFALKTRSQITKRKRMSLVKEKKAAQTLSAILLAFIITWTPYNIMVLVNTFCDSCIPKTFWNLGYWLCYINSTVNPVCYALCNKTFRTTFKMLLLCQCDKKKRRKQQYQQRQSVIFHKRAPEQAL

The pKi is the negative decadic logarithm of the Ki, by convention in mol/L. Consider `CN(CCN1CCC(OC(=O)Nc2ccccc2-c2ccccc2)CC1)C(=O)CCCCCNc1ccc(C(=O)N(C)CCCN(C)C(=O)CO[C@H]2Cc3ccccc3C23CCN(CC[C@@]2(c4ccc(F)cc4)CN(C(=O)c4cc(C(F)(F)F)cc(C(F)(F)F)c4)CO2)CC3)nc1` [Example 9, 1-(2-{[6-({6-[{3-[({[(2S)-1′-{2-[(5R)-3-[3,5-Bis(trifluoromethyl)benzoyl]-5-(4-fluorophenyl)-1,3-oxazolidin-5-yl]ethyl}-2,3-dihydrospiro[indene-1,4′-piperidin]-2-yl]oxy}acetyl)(methyl)amino]propyl}(methyl)carbamoyl]pyridin-3-yl}amino)hexanoyl](methyl)amino}ethyl)piperidin-4-yl biphenyl-2-ylcarbamate], for which the pKi was 9.18 on human NK2 receptor (setting [1]), 8.68 on substance P receptor (setting [2]) and 8.89 on human M3 receptor (setting [3]). The ED50 at neurokinin NK1 receptor amounted to 0.0348 mg/kg.

For the molecule `CN(CCN1CCC(OC(=O)Nc2ccccc2-c2ccccc2)CC1)C(=O)CCN(C)c1ccc(C(=O)N(C)CCCN(C)C(=O)CO[C@H]2Cc3ccccc3C23CCN(CC[C@@]2(c4ccc(F)cc4)CN(C(=O)c4cc(C(F)(F)F)cc(C(F)(F)F)c4)CO2)CC3)cc1` [Example 95, 1-{2-[(N-{4-[{3-[({[(2S)-1′-{2-[(5R)-3-[3,5-Bis(trifluoromethyl)benzoyl]-5-(4-fluorophenyl)-1,3-oxazolidin-5-yl]ethyl}-2,3-dihydrospiro[indene-1,4′-piperidin]-2-yl]oxy}acetyl)(methy)amino]propyl}(methyl)carbamoyl]phenyl}-N-methyl-β-alanyl)(methyl)amino]ethyl}piperidin-4-yl biphenyl-2-ylcarbamate], the pKi at human NK2 receptor (setting [1]) is 9.09; at substance P receptor it was 8.85; at human M3 receptor (setting [3]) it was 8.68. In addition, the ED50 at neurokinin NK1 receptor came to 0.0225 mg/kg.

In the case of `CN(CCN1CCC(OC(=O)Nc2ccccc2-c2ccccc2)CC1)C(=O)CCCCCNc1ccc(C(=O)N2CCCN(C(=O)CO[C@H]3Cc4ccccc4C34CCN(CC[C@@]3(c5ccc(F)cc5)CN(C(=O)c5cc(C(F)(F)F)cc(C(F)(F)F)c5)CO3)CC4)CC2)cc1` [Example 110, 1-{2-[{6-[(4-{[4-({[(2S)-1′-{2-[(5R)-3-[3,5-Bis(trifluoromethyl)benzoyl]-5-(4-fluorophenyl)-1,3-oxazolidin-5-yl)ethyl}-2,3-dihydrospiro[indene-1,4′-piperidin]-2-yl]oxy}acetyl)-1,4-diazepan-1-yl]carbonyl}phenyl)amino]hexanoyl}(methyl)amino]ethyl}piperidin-4-yl biphenyl-2-ylcarbamate trihydrochloride], the results for the pKi at human NK2 receptor, on substance P receptor (setting [2]) and on human M3 receptor were 9.22, 8.77 and 9.03, respectively. Moreover, at neurokinin NK1 receptor, the ED50 is 0.0174 mg/kg.

Consider `CN(CCN1CCC(OC(=O)Nc2ccccc2-c2ccccc2)CC1)C(=O)CCCCCNc1ccc(C(=O)N(C)CCN(C)C(=O)CO[C@H]2Cc3ccccc3C23CCN(CC[C@@]2(c4ccc(F)cc4)CN(C(=O)c4cc(C(F)(F)F)cc(C(F)(F)F)c4)CO2)CC3)cc1` [Example 16, 1-(2-{[6-({4-[{2-[({[(2S)-1′-{2-[(5R)-3-[3,5-Bis(trifluoromethyl)benzoyl]-5-(4-fluorophenyl)-1,3-oxazolidin-5-yl]ethyl}-2,3-dihydrospiro[indene-1,4′-piperidin]-2-yl]oxy}acetyl)(methyl)amino]ethyl}(methyl)carbamoyl]phenyl}amino)hexanoyl](methyl)amino}ethyl)piperidin-4-yl biphenyl-2-ylcarbamate trihydrochloride], for which the pKi on human NK2 receptor was 9.31; on substance P receptor (setting [2]) it was 8.60; on human M3 receptor, 8.62. Further, the ED50 on neurokinin NK1 receptor was 0.016 mg/kg.

For the molecule `CN(CCN1CCC(OC(=O)Nc2ccccc2-c2ccccc2)CC1)C(=O)CCCCN(C)c1ccc(C(=O)N(C)CCCN(C)C(=O)CO[C@H]2Cc3ccccc3C23CCN(CC[C@@]2(c4ccc(F)cc4)CN(C(=O)c4cc(C(F)(F)F)cc(C(F)(F)F)c4)CO2)CC3)cc1` [Example 38, 1-{2-[{5-[{4-[{3-[({[(2S)-1′-{2-[(5R)-3-[3,5-Bis(trifluoromethyl)benzoyl]-5-(4-fluorophenyl)-1,3-oxazolidin-5-yl]ethyl}-2,3-dihydrospiro[indene-1,4′-piperidin]-2-yl]oxy}acetyl)(methy)amino]propyl}(methyl)carbamoyl]phenyl}(methyl)amino]pentanoyl}(methyl)amino]ethyl}piperidin-4-yl biphenyl-2-ylcarbamate trihydrochloride], the results for the pKi on human NK2 receptor (setting [1]), at substance P receptor (setting [2]) and on human M3 receptor (setting [3]) were 9.05, 8.82 and 8.74, respectively. In addition, the ED50 at neurokinin NK1 receptor is 0.0161 mg/kg.

For `CN(CCN1CCC(OC(=O)Nc2ccccc2-c2ccccc2)CC1)C(=O)CCCCCNc1ccc(C(=O)N(CCCN(C)C(=O)CO[C@H]2Cc3ccccc3C23CCN(CC[C@@]2(c4ccc(F)cc4)CN(C(=O)c4cc(C(F)(F)F)cc(C(F)(F)F)c4)CO2)CC3)C2CC2)cc1` [Example 25, 1-(2-{[6-({4-[{3-[({[(2S)-1′-{2-[(5R)-3-[3,5-Bis(trifluoromethyl)benzoyl]-5-(4-fluorophenyl)-1,3-oxazolidin-5-yl]ethyl}-2,3-dihydrospiro[indene-1,4′-piperidin]-2-yl]oxy}acetyl)(methyl)amino]propyl}(cyclopropyl)carbamoyl]phenyl}amino)hexanoyl](methyl)amino}ethyl)piperidin-4-yl biphenyl-2-ylcarbamate trihydrochloride], the pKi was 9.11 at human NK2 receptor, 8.77 at substance P receptor (setting [2]) and 8.85 on human M3 receptor. For the same molecule, the ED50 on neurokinin NK1 receptor is 0.0437 mg/kg.

Regarding `CN(CCN1CCC(OC(=O)Nc2ccccc2-c2ccccc2)CC1)C(=O)COCCCNc1ccc(C(=O)N(C)CCCN(C)C(=O)CO[C@H]2Cc3ccccc3C23CCN(CC[C@@]2(c4ccc(F)cc4)CN(C(=O)c4cc(C(F)(F)F)cc(C(F)(F)F)c4)CO2)CC3)cc1` [Example 27, 1-{2-[{[3-({4-[{3-[({[(2S)-1′-{2-[(5R)-3-[3,5-Bis(trifluoromethyl)benzoyl]-5-(4-fluorophenyl)-1,3-oxazolidin-5-yl]ethyl}-2,3-dihydrospiro[indene-1,4′-piperidin]-2-yl]oxy}acetyl)(methyl)amino]propyl}(methyl)carbamoyl]phenyl}amino)propoxy]acetyl}(methyl)amino]ethyl}piperidin-4-yl biphenyl-2-ylcarbamate trihydrochloride], the results for the pKi at human NK2 receptor, on substance P receptor (setting [2]) and at human M3 receptor were 9.12, 8.92 and 8.85, respectively. Moreover, the ED50 on neurokinin NK1 receptor came out at 0.0229 mg/kg.

Take `Cc1cc(NCCCCCC(=O)N(C)CCN2CCC(OC(=O)Nc3ccccc3-c3ccccc3)CC2)sc1C(=O)N(C)CCCN(C)C(=O)CO[C@H]1Cc2ccccc2C12CCN(CC[C@@]1(c3ccc(F)cc3)CN(C(=O)c3cc(C(F)(F)F)cc(C(F)(F)F)c3)CO1)CC2` [Example 30, 1-(2-{[6-({5-[{3-[({[(2S)-1′-{2-[(5R)-3-[3,5-Bis(trifluoromethyl)benzoyl]-5-(4-fluorophenyl)-1,3-oxazolidin-5-yl]ethyl}-2,3-dihydrospiro[indene-1,4′-piperidin]-2-yl]oxy}acetyl)(methyl)amino]propyl}(methyl)carbamoyl]-4-methyl-2-thienyl}amino)hexanoyl](methyl)amino}ethyl)piperidin-4-yl biphenyl-2-ylcarbamate trihydrochloride]: the pKi on human NK2 receptor was 9.15; at substance P receptor (setting [2]), 8.72; at human M3 receptor, 9.21. Besides, the ED50 on neurokinin NK1 receptor amounted to 0.0388 mg/kg.

(Values after patent US8476253B2, “Amide derivative” (Daiichi Sankyo Company, Limited, priority 2009, dated 2013).)
